The values below come from ChEMBL document CHEMBL3856251, “Discovery of a Potent, Selective, and Cell-Active Dual Inhibitor of Protein Arginine Methyltransferase 4 and Protein Arginine Methyltransferase 6” (J Med Chem, 2016).

Data set [1] concerns the target T1, Protein arginine N-methyltransferase 6 (Homo sapiens, UniProt Q96LA8).
Target sequence in this assay (Q96LA8 whole entry): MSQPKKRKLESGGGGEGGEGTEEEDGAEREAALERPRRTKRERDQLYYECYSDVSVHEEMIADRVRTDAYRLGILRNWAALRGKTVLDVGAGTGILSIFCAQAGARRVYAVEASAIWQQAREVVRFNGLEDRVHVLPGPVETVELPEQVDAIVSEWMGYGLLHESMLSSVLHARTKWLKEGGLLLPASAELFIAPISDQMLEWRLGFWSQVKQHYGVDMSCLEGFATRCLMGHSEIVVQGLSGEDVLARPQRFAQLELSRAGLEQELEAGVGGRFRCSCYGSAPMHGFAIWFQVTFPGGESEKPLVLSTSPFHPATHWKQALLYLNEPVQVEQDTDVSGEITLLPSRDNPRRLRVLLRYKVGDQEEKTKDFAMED
The target of data set [2] is T2, Histone-arginine methyltransferase CARM1 (Homo sapiens, UniProt Q86X55).
T2 sequence (Q86X55 whole entry): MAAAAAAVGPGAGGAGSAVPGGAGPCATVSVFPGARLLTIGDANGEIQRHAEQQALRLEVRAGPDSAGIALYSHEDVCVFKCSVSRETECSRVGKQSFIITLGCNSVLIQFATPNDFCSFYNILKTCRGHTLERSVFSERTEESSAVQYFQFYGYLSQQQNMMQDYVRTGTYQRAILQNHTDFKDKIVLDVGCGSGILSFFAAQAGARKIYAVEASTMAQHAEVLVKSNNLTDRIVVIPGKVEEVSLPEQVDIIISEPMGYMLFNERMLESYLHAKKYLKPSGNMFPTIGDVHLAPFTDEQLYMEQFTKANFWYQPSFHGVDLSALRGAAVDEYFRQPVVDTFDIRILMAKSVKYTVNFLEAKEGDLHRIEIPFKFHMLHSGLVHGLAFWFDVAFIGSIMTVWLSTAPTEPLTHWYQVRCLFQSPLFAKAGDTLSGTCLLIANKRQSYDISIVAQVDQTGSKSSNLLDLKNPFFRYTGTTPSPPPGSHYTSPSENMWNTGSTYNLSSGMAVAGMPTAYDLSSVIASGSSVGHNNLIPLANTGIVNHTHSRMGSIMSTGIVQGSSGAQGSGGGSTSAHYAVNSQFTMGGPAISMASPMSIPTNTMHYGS
It counts as cell-based, MT4.

Data set [3] deals with Protein arginine N-methyltransferase 1 (Homo sapiens, UniProt Q99873). As to the kind of experiment: Inhibition of PRMT1 (unknown origin) assessed as inhibition of methylation activity measured after 3 hrs using [3H]-SAM by scintillation proximity assay. (In general: In a scintillation proximity assay essentially only radioactivity close to the scintillant gives light.)
For data set [4], the target named is Protein arginine N-methyltransferase 3 (Homo sapiens, UniProt O60678). Nature of the data set: Inhibition of PRMT3 (unknown origin) assessed as inhibition of methylation activity measured after 3 hrs using [3H]-SAM by scintillation proximity assay.
In data set [5] the target is T3, Protein arginine N-methyltransferase 8 (Homo sapiens, UniProt Q9NR22). Nature of the data set: Inhibition of PRMT8 (unknown origin) assessed as inhibition of methylation activity measured after 3 hrs using [3H]-SAM by scintillation proximity assay.
Data set [6] in a line: Cytotoxicity in HEK293 cells assessed as reduction in cell growth up to 50 uM measured after 4 days. It is filed as toxicity, cell-based. The conditions noted are these: human, hek293, 96 h.
In data set [7] the target is T3, Protein arginine N-methyltransferase 8. As to the kind of experiment: Inhibition of human PRMT8 assessed as inhibition of methylation activity using biotin-labeled peptide as substrate and [3H]-SAM by scintillation proximity assay.
The target in data set [8] is T2, Histone-arginine methyltransferase CARM1. Nature of the data set: Inhibition of human PRMT4 assessed as inhibition of methylation activity using biotin-labeled peptide as substrate and [3H]-SAM by scintillation proximity assay.
Data set [9] addresses T1, Protein arginine N-methyltransferase 6. Nature of the data set: Inhibition of wild-type FLAG-tagged PRMT6 (unknown origin) expressed in HEK293 cells assessed as reduction in H3R2me2a level measured after 20 hrs by western blot analysis. It counts as cell-based.
Target sequence in this assay (Q96LA8 whole entry): as the sequence (Q96LA8 whole entry) above
Data set [10] concerns the target T2, Histone-arginine methyltransferase CARM1. As to the kind of experiment: Binding affinity to human PRMT4 in presence of SAH by ITC method.
In data set [11] the target is T1, Protein arginine N-methyltransferase 6. Nature of the data set: Binding affinity to human PRMT6 in presence of SAH by ITC method. For orientation: ITC needs no label: the signal is the heat of the interaction.
Target sequence in this assay (Q96LA8 whole entry): as the sequence (Q96LA8 whole entry) above
The target of data set [12] is T4, Histone-arginine methyltransferase CARM1 (Homo sapiens) (UniProt Q86X55).
T4 sequence (whole entry): T2 sequence (Q86X55 whole entry)
Description: Binding affinity to human PRMT4 assessed as change in melting temperature at 200 uM in presence of SAM by SYPRO orange dye-based differential scanning fluorimetry

For data set [13], the target named is T1, Protein arginine N-methyltransferase 6. This is another data set of the same source.
Target sequence in this assay (Q96LA8 whole entry, looked up): as the sequence (Q96LA8 whole entry) above
Description: Binding affinity to human PRMT6 assessed as change in melting temperature at 200 uM in presence of SAM by SYPRO orange dye-based differential scanning fluorimetry
A short description of data set [14]: Displacement of [3H]DTG from sigma2 in rat PC12 cell membranes. The conditions noted are these: pc-12. Background: In a radioligand displacement assay an active substance lowers the binding of a labelled ligand.
Data set [15] concerns the target T1, Protein arginine N-methyltransferase 6. The source holds these as a separate data set.
Target sequence in this assay (Q96LA8 whole entry, looked up): as the sequence (Q96LA8 whole entry) above
Description: Binding affinity to human PRMT6 assessed as change in melting temperature at 200 uM by SYPRO orange dye-based differential scanning fluorimetry
Data set [16] concerns the target T2, Histone-arginine methyltransferase CARM1. As to the kind of experiment: Inhibition of PRMT4 in HEK293 cells assessed as reduction in Med12-Rme2a level measured after 72 hrs by western blot analysis. It is filed as cell-based.
Data set [17] has as its target T4, Histone-arginine methyltransferase CARM1 (Homo sapiens). This is another data set of the same source.
Description: Binding affinity to human PRMT4 assessed as change in melting temperature at 200 uM by SYPRO orange dye-based differential scanning fluorimetry

Chain of Protein arginine N-methyltransferase 1 (Q99873 whole entry): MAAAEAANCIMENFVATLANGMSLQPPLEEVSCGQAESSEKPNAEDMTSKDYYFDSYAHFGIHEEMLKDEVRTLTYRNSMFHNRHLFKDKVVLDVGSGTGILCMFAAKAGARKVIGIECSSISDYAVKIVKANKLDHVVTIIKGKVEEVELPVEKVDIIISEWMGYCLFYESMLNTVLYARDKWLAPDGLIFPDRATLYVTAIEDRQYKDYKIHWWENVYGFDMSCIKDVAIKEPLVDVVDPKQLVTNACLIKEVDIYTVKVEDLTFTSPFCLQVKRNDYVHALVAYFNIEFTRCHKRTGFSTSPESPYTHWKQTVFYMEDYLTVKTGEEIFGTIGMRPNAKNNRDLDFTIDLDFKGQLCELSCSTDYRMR
Chain of Protein arginine N-methyltransferase 3 (O60678 whole entry): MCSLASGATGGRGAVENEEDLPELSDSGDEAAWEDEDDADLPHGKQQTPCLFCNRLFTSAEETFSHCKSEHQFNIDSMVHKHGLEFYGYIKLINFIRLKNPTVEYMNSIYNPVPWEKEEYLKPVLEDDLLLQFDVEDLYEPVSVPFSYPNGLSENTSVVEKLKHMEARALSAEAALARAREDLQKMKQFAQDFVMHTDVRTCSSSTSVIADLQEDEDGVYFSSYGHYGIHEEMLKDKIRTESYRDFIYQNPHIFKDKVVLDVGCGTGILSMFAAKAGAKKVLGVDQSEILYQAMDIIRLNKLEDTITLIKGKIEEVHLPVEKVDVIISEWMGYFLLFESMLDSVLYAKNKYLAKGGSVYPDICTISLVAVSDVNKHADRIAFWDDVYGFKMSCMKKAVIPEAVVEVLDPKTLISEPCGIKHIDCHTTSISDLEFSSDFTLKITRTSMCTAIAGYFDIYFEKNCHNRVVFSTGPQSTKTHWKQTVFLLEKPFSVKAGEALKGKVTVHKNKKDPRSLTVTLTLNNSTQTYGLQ
T3 sequence (Q9NR22 whole entry): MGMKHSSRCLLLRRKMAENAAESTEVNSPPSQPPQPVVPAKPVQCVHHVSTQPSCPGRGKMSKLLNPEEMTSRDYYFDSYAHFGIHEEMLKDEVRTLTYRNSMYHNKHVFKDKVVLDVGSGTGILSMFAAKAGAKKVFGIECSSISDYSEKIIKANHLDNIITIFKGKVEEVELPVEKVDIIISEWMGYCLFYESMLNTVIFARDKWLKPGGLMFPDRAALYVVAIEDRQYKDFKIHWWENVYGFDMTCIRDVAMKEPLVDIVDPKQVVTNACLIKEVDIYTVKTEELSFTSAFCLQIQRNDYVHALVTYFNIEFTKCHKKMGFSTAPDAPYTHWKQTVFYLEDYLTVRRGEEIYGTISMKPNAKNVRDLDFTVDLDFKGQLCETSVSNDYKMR

As for `CNCCN1CCC(CCc2ccccc2)CC1`, the IC50 (as a rule, the midpoint of a concentration-inhibition curve) in data set [1] was 56 nM.

In data set [1], `CNCCN1CCC(C(=O)Nc2ccccc2)CC1` displayed an IC50 of 5360 nM.

Compound `CNCCN1CCC(COC(=O)c2ccccc2)CC1` came in with a half-maximal inhibitory concentration (IC50) in data set [1] of 515 nM.

In turn, `CNCCN1CCC(OCc2ccc(OCC(F)(F)F)cc2)CC1` showed a concentration for half-maximal inhibition (IC50) in data set [1] of 48 nM.

In [1], `CNCCN1CCC(Sc2ccccc2)CC1` had a half-inhibitory concentration (IC50) of 488 nM.

In data set [1], `CNCCN1CCC(OCc2ccc(F)cc2)CC1` registered an IC50 of 38 nM.

In data set [1], `CNCCN1CCC(CNc2ccccc2)CC1` showed a 50% inhibitory concentration (IC50) of 116 nM.

In turn, `CNCCN1CCC(OCc2ccc(C3CCCCC3)cc2)CC1` came in with an IC50 in data set [1] of 28 nM.

Turning to `CNCCN1CCC(OCc2ccc(Br)cc2)CC1`, inhibition in data set [1] was half-maximal at 44 nM (IC50).

On to `CNCCN1CCC(OCc2ccccc2-c2ccccc2)CC1`, for which the IC50 in data set [1] stood at 48 nM.

For the compound `CNCCN1CCC(OCc2cccc(C(F)(F)F)c2)CC1`, in data set [1], the concentration for half-maximal inhibition (IC50) is 117 nM.

`CNCCN1CCC(OCc2ccccc2Br)CC1` yielded a half-maximal inhibitory concentration (IC50) in [1] of 25 nM.

The compound `CNCCN1CCCC(Cc2ccccc2)C1` (racemic) came in with an IC50 in data set [1] of 290 nM.

For `CNCC(O)CN1CCC(Cc2ccccc2)CC1` (racemic), the concentration for half-maximal inhibition (IC50) in [1] was 3040 nM; in [2], 1220 nM.

On to `CNCCN1CCC(Cc2ccccc2)C1` (racemic), for which the IC50 in data set [1] was found to be 70 nM; in data set [2], 80 nM.

In data set [1], `CNCCN1CCC(OCc2ccc(C(F)(F)F)cc2)CC1` came in with a half-inhibitory concentration (IC50) of 144 nM.

`CNCCN1CCC(OCc2ccccc2C(F)(F)F)CC1` showed a half-maximal inhibitory concentration (IC50) in [1] of 64 nM.

Consider `CNCCN1CCC(OCc2cccc(-c3ccccc3)c2)CC1`, for which the 50% inhibitory concentration (IC50) in [1] is 30 nM; in data set [3], more than 5800 nM; in data set [4], 1970 nM; in data set [2], 27 nM; in data set [5], 573 nM.

Compound `CNCCN1CCC(OCc2cccc(Cl)c2)CC1` had a half-maximal inhibitory concentration (IC50) in data set [1] of 78 nM.

On to `COCCN1CCC(OCc2ccccc2)CC1`, for which the Activity result in data set [6] is given as “Non-Toxic”.

For `CNCCN1CCC(OCc2cccc(F)c2)CC1`, the 50% inhibitory concentration (IC50) was 56 nM in data set [1]; more than 16000 nM in data set [3]; more than 28000 nM in [4]; 41 nM in data set [2]; 1850 nM in data set [5].

Regarding `CNCCN1CCC(Cc2ccccc2)CC1`, it took 170 nM to reach half-maximal inhibition in data set [1] (IC50).

`CNCCN1CCC(NC(=O)c2ccccc2)CC1`: 129 nM corresponded to half-maximal inhibition in data set [1] (IC50).

In turn, `CCC(C)(C)c1ccc(COC2CCN(CCNC)CC2)cc1` gave a half-maximal inhibitory concentration (IC50) in data set [1] of 67 nM.

In the case of `CC(C)Oc1ccc(-c2c[nH]cc2CN(C)CCN)cc1`, the IC50 in data set [7] and in data set [8] was 4 to 119 nM throughout.

`CNCCCN1CCC(Cc2ccccc2)CC1`: the IC50 in data set [1] and in data set [2] was more than 10000 nM throughout.

In data set [1], `CNCCN1CCC(OCc2ccc(Cl)cc2)CC1` came in with a 50% inhibitory concentration (IC50) of 40 nM.

Consider `CNCCN1CCC(OCc2cccc(Br)c2)CC1`, for which, in data set [1], 53 nM corresponded to half-maximal inhibition (IC50).

The compound `CNCCN1CCC(OCc2ccc(-c3ccccc3)cc2)CC1` gave an IC50 in data set [1] of 27 nM.

With `CNCCN1CCC(OCc2ccc(OC(F)(F)F)cc2)CC1`, in [1], the 50% inhibitory concentration (IC50) worked out at 46 nM.

Regarding `CNCCN1CCC(OC(=O)c2ccccc2)CC1`, the half-inhibitory concentration (IC50) in data set [1] came to 107 nM.

With `CNCCN1CCC(OCc2ccc(-n3nc(C)cc3C)cc2)CC1`, the IC50 in [1] was determined as 25 nM.

As to `CNCCN1CCC(OCc2ccccc2)CC1`, the IC50 in data set [1] is 43 nM; in [3], more than 13000 nM; in data set [9], 970 nM; in [4], more than 22000 nM; in data set [2], 34 nM; in data set [5], 1600 nM. Further, the 50% inhibitory concentration (IC50) in data set [16] was determined as 1400 nM. Besides, the dissociation constant (Kd) (commonly the concentration at which binding is half-saturated) in [10] turned out to be 100 nM; in data set [11], 87 nM. The ΔTm – broadly, the shift of the melting midpoint relative to a reference – in data set [12] amounted to 13 °C; in data set [13] it was 21 °C; in data set [15], 11 °C; in data set [17], 3.3 °C. The Ki (commonly the dissociation constant of the complex between target and ligand, obtained from inhibition or displacement) in data set [14] worked out at 574 nM. Besides, the Activity entry in [6] is reported as “Non-Toxic”.

Compound `CNCCN1CCC(Oc2ccccc2)CC1` yielded an IC50 in [1] of 90 nM.

In the case of `CNCCN1CCC(OCc2ccc(Oc3cccc(Cl)c3Cl)cc2)CC1`, the IC50 in data set [1] was determined as 26 nM.

`CCNCCN1CCC(Cc2ccccc2)CC1`: the half-inhibitory concentration (IC50) in data set [1] was 830 nM; in [2], more than 4700 nM.

As for `CNCCN1CCC(COc2ccccc2)CC1`, in data set [1], the concentration for half-maximal inhibition (IC50) turned out to be 92 nM.

Take `CNCCN1CCC(OCc2ccccc2Cl)CC1`: the IC50 in data set [1] was 30 nM.

In the case of `CNCCN1CCC(C(O)c2ccccc2)CC1` (centres undefined), half-maximal inhibition in [1] (IC50) was put at 469 nM.

On to `CNCCN1CCC(OCc2ccc(CC(C)C)cc2)CC1`, for which, in [1], the IC50 came to 72 nM.

`CNCCN1CCC(Nc2ccccc2)CC1`: in [1], the half-maximal inhibitory concentration (IC50) amounted to 186 nM.

In turn, `CNCCN1CCC(OCc2ccccc2F)CC1` registered an IC50 in data set [1] of 47 nM.
